Test results: paper PMC7380166, “How to Study the Metabolism of New Psychoactive Substances for the Purpose of Toxicological Screenings—A Follow-Up Study Comparing Pooled Human Liver S9, HepaRG Cells, and Zebrafish Larvae” (Frontiers in Chemistry, 2020)

Columns and labels:
HepaRG cells = experiment: Incubations with HepaRG cells, metabolite identification by LC-HRMS/MS; type: in vitro ADME, human; details: 24 h
[1] = after assumed consumption of a blotter containing 1P-LSD; ref Grumann et al., [2019]; cited from earlier work
monooxygenases = details: initial monooxygenases activity screenings described elsewhere; ref Caspar et al., [2018a]; Wagmann et al., [2019b],[c]; cited from earlier work
zebrafish larvae [2] = experiment: In vivo maximum-tolerated concentration (MTC) study in zebrafish larvae; set-up: species or system zebrafish (Danio rerio); details: for Survival rate: 24-h treatment, fifteen larvae
Method: Internal protocols based on published standard methods (Westerfield, [2007]) were used to perform zebrafish husbandry and the maximum-tolerated concentration (MTC) testing was based on a previous study (Richter et al., [2019a]). Danieau's medium [17 mM NaCl, 2 mM KCl, 0.12 mM MgSO4, 1.8 mM Ca(NO3)2, 1.5 mM HEPES, pH 7.1–7.3, and 1.2 μM methylene blue] at 28°C was used to raise zebrafish larvae of the AB wild-type strain. For MTC testing, 96-well plates were used with 100 μl of medium and one larva per well. Drug exposition was started 4 dpf using 0, 0.01, 0.1, 1, 10, 50, or 100 μM final concentrations of 3,4-DMA-NBOMe, ephylone, 4F-MDMB-BINACA, 4F-PHP, or 1P-LSD, respectively. The drug exposure in the incubator at 28°C lasted 24 h. The final DMSO concentration was 1% (v/v) for all experiments. Monitoring of the larvae was done using a LEICA M205 FA stereo microscope (Leica Mikrosysteme Vertrieb GmbH, Wetzlar, Germany) to detect developmental defects and/or decreased survival rates. Fifteen larvae were used for each experiment.

[3] = after subcutaneous administration of 1P-LSD to rats; ref Halberstadt et al., [2019]; cited from earlier work
zebrafish larvae [4] = experiment: Zebrafish larvae exposure, metabolite identification by LC-HRMS/MS; details: 24 h
[5] = ref Wagmann et al., cited from earlier work

Structure (SMILES): CCC(=O)n1cc2c3c(cccc31)C1=C[C@@H](C(=O)N(CC)CC)CN(C)[C@@H]1C2 [Metabolite 1P-LSD, 1-propionyl-d-lysergic acid diethylamide]
- Absolute peak area, HepaRG [25 μM] (HepaRG cells; 25 μM parent NPS, cell culture medium, one replicate of n = 3, n.d. = not detected): 3.60E+07
- Number of phase I metabolites detected, HepaRG [25 μM] (HepaRG cells; 25 μM): 14
- Number of phase II metabolites detected, HepaRG [25 μM] (HepaRG cells; 25 μM): 1
- Absolute peak area, HepaRG [250 μM] (HepaRG cells; 250 μM parent NPS, cell culture medium, one replicate of n = 3, n.d. = not detected): 5.41E+06
- Number of phase I metabolites detected, HepaRG [250 μM] (HepaRG cells; 250 μM): 15
- Number of phase II metabolites detected, HepaRG [250 μM] (HepaRG cells; 250 μM): 2
- Detection in serum and urine samples of an intoxicated patient [1]: could not be detected
- Monooxygenases involved in metabolism (monooxygenases): N-dealkylated and hydroxylated exclusively by CYP3A4
- Survival rate (zebrafish larvae [2]; 0.01 μM, larvae 4 dpf): 100%
- Survival rate (zebrafish larvae [2]; 0.1 μM, larvae 4 dpf): 100%
- Survival rate (zebrafish larvae [2]; 1 μM, larvae 4 dpf): 100%
- Survival rate (zebrafish larvae [2]; 10 μM, larvae 4 dpf): 100%
- Survival rate (zebrafish larvae [2]; 50 μM, larvae 4 dpf): 100%
- Survival rate (zebrafish larvae [2]; 100 μM, larvae 4 dpf): 100%
- Survival rates for all tested concentrations (zebrafish larvae [2]; 0.01 to 100 μM, larvae 4 dpf, 24 h): 100%
- Concentration considered non-toxic for zebrafish larvae (4 dpf) (zebrafish larvae [2]; 24 h exposure via medium): 100 µM
- Malformations (zebrafish larvae [2]; up to 100 μM, larvae 4 dpf, 24 h): no malformations
- Detection in rat plasma [3]: able to detect
- Number of phase I metabolites detected, Zebrafish larvae (zebrafish larvae [4]; 100 μM in medium): 22
- Number of phase II metabolites detected, Zebrafish larvae (zebrafish larvae [4]; 100 μM in medium): 3
- Absolute peak area, Zebrafish larvae [100 µM] (zebrafish larvae [4]; 100 µM parent NPS in medium, larvae 4 dpf, larvae extract, one replicate of n = 3, n.d. = not detected): 2.92E+09
- Number of phase I metabolites detected, pHLS9 [25 μM] ([5]; 25 μM, [2019c]): 8 (Wagmann et al., [2019c])
- Number of phase II metabolites detected, pHLS9 [25 μM] ([5]; 25 μM, [2019c]): 0 (Wagmann et al., [2019c])
- Detection in pHLS9 [25 µM] ([5]; 1P-LSD and metabolites, n = 2, according to literature, 2019b): +
